# Reference: patent US12070455B2, “Thienopyrrole compounds” (Gilead Sciences, Inc., priority 2021, dated 2024)
# Tests used:
# TLR7 = molecular target: T1, TLR7 (Homo sapiens, UniProt Q9NYK1); test: TLR7 human peripheral blood mononuclear cell (PBMC) cell-based assay; conditions: human PBMCs; 1 h with test antagonist, then TLR7 agonist GS-986 400 nM for 6 h; cytokines (IL-6 and IFNα) in supernatant; read-out: TLR-7 EC50
# T1 construct: Human peripheral blood mononuclear cells (PBMCs) consist of lymphocytes, monocytes and dendritic cells that express TLR7, TLR8 and TLR9; endogenous in cells; host or cells: cryopreserved human PBMCs from healthy donors
# T1 sequence (Q9NYK1 27-1049): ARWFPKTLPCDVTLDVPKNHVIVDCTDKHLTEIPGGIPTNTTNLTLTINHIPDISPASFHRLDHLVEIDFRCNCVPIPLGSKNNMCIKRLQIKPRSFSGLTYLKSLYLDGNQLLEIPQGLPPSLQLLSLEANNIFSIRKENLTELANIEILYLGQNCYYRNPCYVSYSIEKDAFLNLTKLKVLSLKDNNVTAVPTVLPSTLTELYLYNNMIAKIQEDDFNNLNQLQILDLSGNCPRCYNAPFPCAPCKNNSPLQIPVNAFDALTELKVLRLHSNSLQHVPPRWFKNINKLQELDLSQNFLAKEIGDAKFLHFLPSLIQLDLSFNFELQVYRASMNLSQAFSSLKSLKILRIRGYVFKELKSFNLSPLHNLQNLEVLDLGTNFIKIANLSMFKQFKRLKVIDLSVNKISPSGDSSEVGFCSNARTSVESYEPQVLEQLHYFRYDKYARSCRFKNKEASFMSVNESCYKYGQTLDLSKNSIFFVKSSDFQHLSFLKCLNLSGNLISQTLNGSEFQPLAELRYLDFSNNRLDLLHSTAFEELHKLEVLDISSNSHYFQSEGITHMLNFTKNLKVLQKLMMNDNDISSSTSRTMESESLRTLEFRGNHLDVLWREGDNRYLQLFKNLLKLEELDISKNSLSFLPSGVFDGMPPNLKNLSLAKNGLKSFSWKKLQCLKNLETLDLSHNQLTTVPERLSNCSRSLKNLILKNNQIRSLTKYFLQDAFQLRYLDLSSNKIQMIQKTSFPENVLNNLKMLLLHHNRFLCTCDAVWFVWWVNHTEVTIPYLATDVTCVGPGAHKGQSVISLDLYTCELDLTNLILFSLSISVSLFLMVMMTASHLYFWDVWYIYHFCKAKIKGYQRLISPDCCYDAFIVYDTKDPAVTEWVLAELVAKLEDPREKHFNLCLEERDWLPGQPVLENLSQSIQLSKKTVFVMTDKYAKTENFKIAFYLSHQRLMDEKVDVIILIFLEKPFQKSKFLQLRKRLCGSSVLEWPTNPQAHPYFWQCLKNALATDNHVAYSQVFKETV
# Source text: TLR7/9 Human Peripheral Blood Mononuclear Cell (PBMC) Cell-Based Assay
# Human peripheral blood mononuclear cells (PBMCs) consist of lymphocytes, monocytes and dendritic cells that express TLR7, TLR8 and TLR9. These cells respond to TLR7, TLR8 and TLR9 ligand stimulation and produce cytokines and chemokines in vitro and in vivo. Human PBMCs are therefore suitable to be used in a cell-based assay to assess the in vitro potency of a TLR 7, 8, and/or 9 antagonist.
# Cryopreserved human PBMCs from healthy donors were thawed and resuspended in RPMI-1640 media with L-glutamine (Corning) supplemented with 10% Fetal Bovine Serum (Hyclone) and 1× Penicillin-Streptomycin (Corning). After counting, the cell density was adjusted to 2 million cells/ml and incubated for 1 hour at 37° C., 5% CO2 for recovery. Following the recovery, the cells were plated by adding 50 μl per well (100,000 cells) to 384-well cell culture plates (Greiner) containing 250 nl of test antagonists in 100% DMSO per well, in a 10 points dose response in quadruplicates. PBMCs were incubated in the presence of test antagonists for one hour at 37° C., 5% CO2 before being stimulated with a TLR7 or TLR9 agonist. GS-986 (Gilead Sciences) was used as the TLR7 agonist at a final concentration of 400 nM. ODN-2216 (InvivoGen) was used as the TLR9 agonist at a final concentration of 3 μM. PBMCs were incubated in the presence of the test antagonist and the TLR7 (or TLR9) agonist for an additional 6 hours at 37° C., 5% CO2. At the end of the incubation, the cell culture plates were centrifuged at 500 g for 5 min, and the cell culture supernatant was collected. The level of cytokines (IL-6 and IFNα) in the supernatant was measured by electrochemiluminescence immunoassays (Mesoscale Discovery) following manufacturer's recommended protocols. The level of cytokine measured was plotted against the test antagonist concentration and fitted to a sigmoidal function to determine the EC50, which are shown below in Table 6.
# TLR8 = molecular target: T2, TLR8 (Homo sapiens, UniProt Q9NR97); test: TLR8 human peripheral blood mononuclear cell (PBMC) cell-based assay; conditions: human PBMCs; 1 h with antagonist, then TLR8 agonist Compound A 800 nM for 6 h; cytokines (TNFa and IL12p40) in supernatant; read-out: TLR-8 EC50
# T2 construct: Human peripheral blood mononuclear cells (PBMCs) consist of lymphocytes, monocytes and dendritic cells that express TLR7, TLR8 and TLR9; endogenous in cells; host or cells: cryopreserved human PBMCs from healthy donors
# T2 sequence (Q9NR97 27-1041): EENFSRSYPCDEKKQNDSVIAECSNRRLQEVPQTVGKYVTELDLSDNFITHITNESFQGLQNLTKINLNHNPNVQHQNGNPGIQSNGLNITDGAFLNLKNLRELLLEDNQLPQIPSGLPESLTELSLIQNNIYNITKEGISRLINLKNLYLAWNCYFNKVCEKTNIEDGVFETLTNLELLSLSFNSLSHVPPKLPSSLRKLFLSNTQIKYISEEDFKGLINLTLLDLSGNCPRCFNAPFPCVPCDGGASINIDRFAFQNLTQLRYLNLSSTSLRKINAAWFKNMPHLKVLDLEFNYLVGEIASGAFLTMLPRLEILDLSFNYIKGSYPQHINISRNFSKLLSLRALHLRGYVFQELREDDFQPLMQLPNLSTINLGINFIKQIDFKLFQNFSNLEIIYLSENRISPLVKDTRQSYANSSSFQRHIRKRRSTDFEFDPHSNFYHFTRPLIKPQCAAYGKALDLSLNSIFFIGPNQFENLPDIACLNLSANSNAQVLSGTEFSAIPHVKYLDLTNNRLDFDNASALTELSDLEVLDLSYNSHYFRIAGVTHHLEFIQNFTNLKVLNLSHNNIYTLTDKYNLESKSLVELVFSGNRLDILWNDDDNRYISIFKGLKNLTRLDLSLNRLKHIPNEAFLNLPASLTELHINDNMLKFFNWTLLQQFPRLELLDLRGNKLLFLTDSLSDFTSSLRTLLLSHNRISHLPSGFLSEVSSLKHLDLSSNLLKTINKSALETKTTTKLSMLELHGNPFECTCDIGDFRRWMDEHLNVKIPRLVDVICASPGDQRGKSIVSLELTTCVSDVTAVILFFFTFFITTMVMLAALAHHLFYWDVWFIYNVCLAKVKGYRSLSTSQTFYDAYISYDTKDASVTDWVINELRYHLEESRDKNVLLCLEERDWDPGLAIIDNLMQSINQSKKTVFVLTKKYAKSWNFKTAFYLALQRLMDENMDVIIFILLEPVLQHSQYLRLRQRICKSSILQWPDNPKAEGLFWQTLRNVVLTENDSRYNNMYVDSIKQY
# Protocol: TLR8 Human Peripheral Blood Mononuclear Cell (PBMC) Cell-Based Assay
# Cryopreserved human PBMCs from healthy donors were thawed and resuspended in RPMI-1640 media with L-glutamine (Corning) supplemented with 10% Fetal Bovine Serum (Hyclone) and 1× Penicillin-Streptomycin (Corning). After counting, the cell density was adjusted to 2 million cells/ml and incubated for 1 hour at 37° C., 5% CO2 for recovery. Following the recovery, the cells were plated by adding 50 μl per well (100,000 cells) to 384-well cell culture plates (Greiner) containing 250 nl of test antagonists in 100% DMSO per well, in a 10 points dose response in quadruplicates. PBMCs were incubated in the presence of antagonists for one hour at 37° C., 5% CO2 before being stimulated with TLR8 agonist. Compound A (Gilead Sciences, U.S. Pat. No. 10,285,990) was used as the TLR8 agonist at a final concentration of 800 nM. PBMCs were incubated in the presence of antagonist and the TLR8 agonist for an additional 6 hours at 37° C., 5% CO2. At the end of the incubation, the cell culture plates were centrifuged at 500 g for 5 min, and the cell culture supernatant was collected. The level of cytokines (TNFa and IL12p40) in the supernatant was measured by electrochemiluminescence immunoassays (Mesoscale Discovery) following manufacturer's recommended protocols. The level of cytokine measured was plotted against the antagonist concentration and fitted to a sigmoidal function to determine the EC50, which are shown below in Table 6.
Structure (SMILES),EC50 (TLR7),EC50 (TLR8)
"Cc1nc2c3c(c(-c4[nH]c5sc([C@@H]6C[C@@H]7C[C@H]6CN7CC(N)=O)c(C)c5c4C(C)C)cn2n1)COC3 [Example 43, 2-((1S,4R,5R)-5-(4-isopropyl-3-methyl-5-(2-methyl-7,9-dihydrofuro[3,4-c][1,2,4]triazolo[1,5-a]pyridin-6-yl)-6H-thieno[2,3-b]pyrrol-2-yl)-2-azabicyclo[2.2.1]heptan-2-yl)acetamide]",1.1 nM,2.05 nM
Cc1nc2c3c(c(-c4[nH]c5sc(C6CCN(CC(N)=O)CC6)c(C)c5c4C(C)C)cn2n1)COC3 [Example 44],4.09 nM,135 nM
Cc1c(C2CCN(CC(N)=O)CC2)sc2[nH]c(-c3cn4ncnc4c4c3COC4)c(C(C)C)c12 [Example 45],4 nM,63.6 nM
Cc1nc2c3c(c(-c4[nH]c5sc([C@@H]6C[C@H]7CC[C@@H](C6)N7CC(N)=O)c(C)c5c4C(C)C)cn2n1)COC3 [Example 46],1.21 nM,77.9 nM
Cc1c([C@@H]2C[C@@H]3C[C@H]2CN3CC(N)=O)sc2[nH]c(-c3cn4ncnc4c4c3COC4)c(C(C)C)c12 [Example 48],0.39 nM,0.36 nM
Cc1c([C@@H]2C[C@H]3CC[C@@H](C2)N3CC(N)=O)sc2[nH]c(-c3cn4ncnc4c4c3COC4)c(C(C)C)c12 [Example 49],0.41 nM,15.2 nM
Cc1nc2c3c(c(-c4[nH]c5sc(C6CCN(CC(N)=O)CC6)c(C)c5c4C(C)C)cn2n1)CCC3 [Example 50],0.78 nM,34.6 nM
"Cc1nc2c3c(c(-c4[nH]c5sc(C6CCN(C(=O)[C@H]7COCCN7)CC6)c(C)c5c4C(C)C)cn2n1)COC3 [Example 51, (R)-(4-(4-isopropyl-3-methyl-5-(2-methyl-7,9-dihydrofuro[3,4-c][1,2,4]triazolo[1,5-a]pyridin-6-yl)-6H-thieno[2,3-b]pyrrol-2-yl)piperidin-1-yl)(morpholin-3-yl)methanone]",2.46 nM,96.6 nM
Cc1c(C2CCN(C(=O)[C@H]3COCCN3)CC2)sc2[nH]c(-c3cn4ncnc4c4c3COC4)c(C(C)C)c12 [Example 52],1.17 nM,26.7 nM
Cc1nc2c3c(c(-c4[nH]c5sc(C6CCN(C(=O)[C@H]7COCCN7)CC6)c(C)c5c4C(C)C)cn2n1)CCC3 [Example 53],0.62 nM,16.2 nM
